Data published in article PMC9694926, “Novel Uracil-Based Inhibitors of Acetylcholinesterase with Potency for Treating Memory Impairment in an Animal Model of Alzheimer’s Disease” (Molecules, 2022).
Structures can show the parent of a compound that is named as a salt. Where two headings read alike, the source gives them in different places.

Tests used:
[1] = biological target: T1, hAChE (Homo sapiens, UniProt P22303); conditions: cited from earlier work; for IC50: human AChE
T1 construct: purchased Sigma-Aldrich
T1 sequence (P22303 32-614): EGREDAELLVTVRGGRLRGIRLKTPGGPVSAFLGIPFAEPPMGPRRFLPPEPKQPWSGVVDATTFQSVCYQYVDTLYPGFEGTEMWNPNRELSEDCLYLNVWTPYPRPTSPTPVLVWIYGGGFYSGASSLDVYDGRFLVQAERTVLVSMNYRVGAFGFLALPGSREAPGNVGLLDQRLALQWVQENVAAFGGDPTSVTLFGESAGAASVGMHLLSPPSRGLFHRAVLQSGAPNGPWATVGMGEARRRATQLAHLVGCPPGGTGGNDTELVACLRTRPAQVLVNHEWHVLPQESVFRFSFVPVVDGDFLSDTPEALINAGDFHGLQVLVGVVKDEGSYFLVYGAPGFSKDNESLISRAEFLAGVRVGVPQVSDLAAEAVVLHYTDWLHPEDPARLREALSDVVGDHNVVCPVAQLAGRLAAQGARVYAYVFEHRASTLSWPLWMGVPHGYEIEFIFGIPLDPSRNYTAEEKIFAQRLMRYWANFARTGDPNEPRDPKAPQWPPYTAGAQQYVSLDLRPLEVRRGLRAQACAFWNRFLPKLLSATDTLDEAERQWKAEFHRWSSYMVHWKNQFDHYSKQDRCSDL

[2] = biological target: T2, hBChE (Homo sapiens, UniProt P06276); conditions: cited from earlier work
T2 construct: hBChE from blood plasma; purchased Sigma-Aldrich; host or cells: human blood plasma
T2 sequence (P06276 29-602): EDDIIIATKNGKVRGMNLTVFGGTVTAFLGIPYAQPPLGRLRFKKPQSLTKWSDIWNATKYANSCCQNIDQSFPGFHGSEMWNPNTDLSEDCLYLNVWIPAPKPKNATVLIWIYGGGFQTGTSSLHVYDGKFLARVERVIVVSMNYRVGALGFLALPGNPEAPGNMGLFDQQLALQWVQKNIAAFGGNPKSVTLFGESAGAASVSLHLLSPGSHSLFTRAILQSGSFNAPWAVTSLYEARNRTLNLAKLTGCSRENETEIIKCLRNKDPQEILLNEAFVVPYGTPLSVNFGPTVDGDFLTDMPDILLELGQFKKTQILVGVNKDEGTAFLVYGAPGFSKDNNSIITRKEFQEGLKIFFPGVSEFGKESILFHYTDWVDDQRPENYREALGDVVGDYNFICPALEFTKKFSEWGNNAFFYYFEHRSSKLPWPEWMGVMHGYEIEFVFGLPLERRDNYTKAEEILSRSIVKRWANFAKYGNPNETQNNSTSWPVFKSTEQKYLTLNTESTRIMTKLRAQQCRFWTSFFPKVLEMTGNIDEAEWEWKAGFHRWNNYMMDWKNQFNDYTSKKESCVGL

[3] = test system: CD1 mice; conditions: i.p. injection, cited from earlier work
[4] = biological target: T2, hBChE; assay: biochemical; conditions: butyrylthiocholine 1 mM, mean of three independent measurements
Protocol: (§1) The inhibitory potency of compounds against hAChE and hBChE was studied using Ellman’s method. Acetylthiocholine iodide (ATC), butyrylthiocholine iodide (BTC), recombinant hAChE, hBChE from blood plasma, and 5,5′-dithio-bis-(2-nitrobenzoic) acid (DTNB) were purchased from Sigma-Aldrich (Sigma-Aldrich, St. Louis, MO, USA). Stock solutions of compounds (0.01 M) were prepared using ethanol or water. In the case of compounds soluble in ethanol, the final concentration of ethanol in the cuvette was 0.1% vol. […] The enzyme-catalyzed reaction of hydrolysis was carried out in 0.1 M phosphate buffer at pH 8.0 containing 0.25 units of hAChE or hBChE and 1 mM ATC or BTC as substrates. The tested compounds were pre-incubated with the enzyme for 5 min at 25 °C prior to the addition of the substrate and the commencement of hydrolysis kinetics recording. Experiments were performed in triplicate. […] The sample without substrate was used as a blank. The sample without inhibitor was used as a control (in a solution of 0.1% vol. ethanol in the case of compounds soluble in ethanol). Percentage of AChE/BChE inhibition was determined by comparison of rates of reaction of test samples relative to the control sample. The percentage of inhibition as a function of compound concentration was plotted using OriginPro 8.5 software (OriginLab Corporation, Northampton, MA, USA).

[5] = biological target: T1, hAChE; assay: biochemical; assay type: biochemical; conditions: for AChE Selectivity: (IC50 BChE)/(IC50 AChE); for IC50: human AChE, acetylthiocholine 1 mM, mean of three independent measurements
Protocol: as §1

[6] = Acute toxicity (LD50), intraperitoneal injection; assay type: in vivo; conditions: CD1, mouse, in vivo, ip; mice, i.p. injection
Protocol: (§2) All experiments involving animals were performed in accordance with the guidelines set out by the European Union Council Directive 2010/63/EU; the experimental protocols were approved by the Animal Care and Use Committee of the Federal Research Center “Kazan Scientific Center of the Russian Academy of Sciences”. Toxicological experiments were performed using intraperitoneal injection of the various compounds in CD1 mice weighing 20–25 g. Mice were maintained on a 12 h light/dark cycle (light from 7:00 a.m. to 7:00 p.m.) at 20−22 °C and 60−70% relative humidity. Five different doses (determined during preliminary tests) were used with six animals per dose. Animals were observed 14 days after injection, and symptoms of intoxication were recorded. […] LD50 was determined by the method of Weiss. Stock solutions of compounds were prepared in ethanol or water. Compounds were administered intraperitoneally in sterile physiological saline. The concentration of ethanol in physiological saline was 5% vol.

[7] = test system: scopolamine-induced amnesia in mice; assay: T-maze spatial memory test in scopolamine-induced amnesia model; assay type: in vivo, CD1 mice; conditions: scopolamine 2 mg/kg i.p.; 1 mg/kg p.o. daily
Protocol: During the first set of in vivo experiments, the ability of compound 2c to reverse the scopolamine-induced amnesia in mice was studied by means of behavioral testing in a T-maze. The percentages of correct choices and mice reaching the criterion of learning were evaluated along with the dynamic of reaching the criterion of learning. Amnesia was caused by intraperitoneal administration of scopolamine (2 mg/kg) 40 min prior to testing. […]. The control group of mice was treated with saline. The behavior of mice was observed within 18 days (Figure 6A).
Scopolamine, representing a muscarinic acetylcholine receptor antagonist, produces a transient receptor blockade and cognitive deficits, which can be considered as a model of AD [28]. CD1 mice were randomly divided into 5 groups (n = 8–10): control group of mice treated with saline; mice injected with a water solution of scopolamine (2 mg/kg, i.p.) at 40 min before testing; […]. Drugs were administered over 18 days.
A reward alternation task was used to assess spatial memory performance in T-maze (OpenScience, Moscow, Russia) as previously described. Briefly, prior to commencing T-maze testing, mice were placed on a food-deprivation schedule over 3 days. […] The percentages of correct choices and mice reaching the criterion of learning were evaluated along with the dynamic of reaching the criterion of learning.

[8] = test system: APP/PS1 mice; conditions: 1 mg/kg p.o. daily
Description: Wild-type and APP/PS1 saline treated mice were employed as negative and positive controls, respectively. The behavior of mice in the T-maze was observed within 18 days (Figure 7A).
Mice were assigned to four groups (n = 8–10). […] APP/PS1 mice and their wild-type non-transgenic littermates that received saline were used as positive and negative controls.
A reward alternation task was used to assess spatial memory performance in T-maze (OpenScience, Moscow, Russia) as previously described [32, 33]. Briefly, prior to commencing T-maze testing, mice were placed on a food-deprivation schedule over 3 days. On the fourth day, mice were placed in the start arm of the T-maze and made it possible to move freely. Over the next 14 days of testing, mice were given 6 pairs of training trials. In the first trial of each pair (forced trial), one of the goal arm guillotine doors was closed and the mouse was constrained to selecting the opposite arm. The mouse was returned to the start box 15–20 s after consuming the reward (diluted sweetened condensed milk). In the second (free choice) trial, both goal arm doors were opened, the arm opposite the one selected in the forced trial was baited. […] The percentages of correct choices and mice reaching the criterion of learning were evaluated along with the dynamic of reaching the criterion of learning.

[9] = test system: CD1 mice; assay: Acute toxicity (LD50), intraperitoneal injection; assay type: in vivo; conditions: i.p. injection
Protocol: as §2

[10] = Solubility in water

SMILES	IC50 [4]	AChE Selectivity [5]	IC50 [5]	LD50 at 14 days [6]	other results
CCN(CCCCCn1c(C)cc(=O)n(CCCCCN(CC)Cc2ccccc2[N+](=O)[O-])c1=O)Cc1ccccc1[N+](=O)[O-] [1a]					AChE Selectivity ([1]; (IC50 BChE)/(IC50 AChE), ref [12]): 10,000; IC50 ([1]; ref [12]): 0.0035 ± 0.0003 µM; IC50 ([2]; ref [12]): 35 µM; LD50 ([3]; ref [12]): 51 mg/kg
CCN(CCCCCn1c(C)cc(=O)n(CCCCCN(CC)Cc2ccccc2C(F)(F)F)c1=O)Cc1ccccc1C(F)(F)F [1b]					IC50 ([1]; ref [12]): 0.0056 ± 0.0007 µM; IC50 ([2]; ref [12]): 20 µM; LD50 ([3]; ref [12]): 49 mg/kg
CCN(CCCCCn1c(C)cc(=O)n(CCCCCN(CC)Cc2ccccc2C#N)c1=O)Cc1ccccc1C#N [1c]					IC50 ([1]; ref [14]): 0.0073 ± 0.0006 µM; IC50 ([2]; ref [14]): 100 µM; LD50 ([3]; ref [14]): 138 mg/kg
CCN(CCCn1c(C)cc(=O)n(CCCN(CC)Cc2cccc(C(=O)OC)c2)c1=O)Cc1cccc(C(=O)OC)c1 [2a, 1,3-Bis[3-(meta-methoxycarbonylbenzylethylamino)propyl]-6-methyluracil]	16 µM	0.08	210 µM	170 mg/kg	
CCN(CCCCn1c(C)cc(=O)n(CCCCN(CC)Cc2cccc(C(=O)OC)c2)c1=O)Cc1cccc(C(=O)OC)c1 [2b, 1,3-Bis[4-(meta-methoxycarbonylbenzylethylamino)butyl]-6-methyluracil]	19.5 µM	722	0.027 ± 0.003 µM	120 mg/kg	
CCN(CCCCCCn1c(C)cc(=O)n(CCCCCCN(CC)Cc2cccc(C(=O)OC)c2)c1=O)Cc1cccc(C(=O)OC)c1 [2d, 1,3-Bis[6-(meta-methoxycarbonylbenzylethylamino)hexyl]-6-methyluracil]	1.34 ± 0.33 µM	285	0.0047 ± 0.00017 µM	47.5 mg/kg	
CCN(CCCCCn1c(C)cc(=O)n(CCCCCN(CC)Cc2cccc(C(=O)[O-])c2)c1=O)Cc1cccc(C(=O)[O-])c1.[Na+].[Na+] [2e, 1,3-Bis[5-((meta-methylbenzoate)ethylamino)pentyl]-6-methyluracil disodium salt]	~21000 µM	1.6 × 10^6	0.013 ± 0.001 µM	170 mg/kg	
CCN(CCCCn1c(C)cc(=O)n(CCCCN(CC)Cc2ccc(C(=O)OC)cc2)c1=O)Cc1ccc(C(=O)OC)cc1 [3a, 1,3-Bis[4-(para-methoxycarbonylbenzylethylamino)butyl]-6-methyluracil]	128 µM	39	3.3 ± 0.58 µM	51 mg/kg	
CCN(CCCCCn1c(C)cc(=O)n(CCCCCN(CC)Cc2ccc(C(=O)OC)cc2)c1=O)Cc1ccc(C(=O)OC)cc1 [3b, 1,3-Bis[5-(para-methoxycarbonylbenzylethylamino)pentyl]-6-methyluracil]	273 µM	355.5	0.768 ± 0.08 µM	188 mg/kg	
CCN(CCCCCCn1c(C)cc(=O)n(CCCCCCN(CC)Cc2ccc(C(=O)OC)cc2)c1=O)Cc1ccc(C(=O)OC)cc1 [3c, 1,3-Bis[6-(para-methoxycarbonylbenzylethylamino)hexyl]-6-methyluracil]	59.9 µM	2218	0.027 ± 0.007 µM	87 mg/kg	selectivity against AChE lower compared to compound 2c ([5]; AChE vs BChE): more than 15 times
CCN(CCCCCn1c(C)cc(=O)n(CCCCCN(CC)Cc2ccc(C(=O)[O-])cc2)c1=O)Cc1ccc(C(=O)[O-])cc1.[Na+].[Na+] [3d, 1,3-Bis[5-((para-methylbenzoate)ethylamino)pentyl]-6-methyluracil disodium salt]	> 100000 µM		0.0046 ± 0.0004 µM	168 mg/kg	
CCN(CCCCn1c(=O)c2ccccc2n(CCCCN(CC)Cc2cccc(C(=O)OC)c2)c1=O)Cc1cccc(C(=O)OC)c1 [4a, 1,3-Bis[4-(meta-methoxycarbonylbenzylethylamino)butyl]-quinazoline-2,4-dione]	3.16 ± 0.39 µM	7	0.46 ± 0.095 µM	120 mg/kg	
CCN(CCCCCn1c(=O)c2ccccc2n(CCCCCN(CC)Cc2cccc(C(=O)OC)c2)c1=O)Cc1cccc(C(=O)OC)c1 [4b]	2.38 ± 0.49 µM	8.2	0.29 ± 0.042 µM	93 mg/kg	
COc1cc2c(cc1OC)C(=O)C(CC1CCN(Cc3ccccc3)CC1)C2 (centres unmarked) [Donepezil, donepezil hydrochloride]					percentage of correct choices in T-maze [7]: 66.78 ± 2.62%; percentage of mice reaching the criterion of learning by day 14 [7]: 80%; percentage of correct choices in T-maze [8]: 67.46 ± 2.35%; percentage of mice reaching the criterion of learning [8]: 50%
CCN(CCCCCn1c(C)cc(=O)n(CCCCCN(CC)Cc2cccc(C(=O)OC)c2)c1=O)Cc1cccc(C(=O)OC)c1 [compound 9]					LD50 [9]: 96 mg/kg; solubility in water [10]: water-soluble
